The values below come from paper PMC7203957 (ACS Omega, 2020).

One data set has as its target GyrB (1–220) (Escherichia coli, UniProt P0AES6). The experiment in a line: Isothermal titration calorimetry. It is filed as binding, E. coli. The following applies: for exothermic / thermodynamic signal in ITC: fragment screening, result in words.
The nature of data set [1]: Solubility test for ITC measurement. It is filed as physicochemical. The following applies: DMSO (40–200 mM) and assay (ITC) buffer.
The subject of the next data set is E. coli ATCC 25922. The data set is described as follows: Minimum inhibitory concentration. Format: cell-based. The following applies: without efflux pump inhibitor.
In the next data set the test system is S. aureus ATCC 29213. The data set is described as follows: Minimum inhibitory concentration. It is filed as cell-based.
A short description of another data set: HepG2 cytotoxicity. It is filed as cell-based. The following applies: human, HepG2 (ATCC HB-8065) cells.

Several values for one entry are separate records, joined by “and”; a condition that tells them apart may be missing. Identical values can stand only once.

Regarding `CNc1cccc2ccc(=O)[nH]c12` [Compound 2d, 8-(Methylamino)quinolin-2(1H)-one], the “ITC ΔH” value at GyrB (1–220) (Table 2 fragments) was −6.14 kcal/mol and -6.14^b kcal/mol.
On to `CCNc1cccc2ccc(=O)[nH]c12` [Compound 2q, 8-(ethylamino) quinolin-2(1H)-one], for which, on GyrB (1–220), the “exothermic / thermodynamic signal in ITC” value is “no exothermic effects”.
Still for that read-out and setting: the entry for `Nc1cccc2ccc(=O)[nH]c12` [Compound 2u, 8-aminoquinolin-2(1H)-one] is “no exothermic effects”.
As to `CNc1cccc2cc(C(=O)Nc3ccccc3)c(=O)[nH]c12` [Compound 13, 8-(Methylamino)-2-oxo-N-phenyl-1,2-dihydroquinoline-3-carboxamide], in data set [1], the “Solubility for ITC measurement” value is listed as “low solubility”.
As for `CNc1cccc2cc(C(=O)Nc3cccc(C(=O)O)c3)c(=O)[nH]c12` [Compound 13a, 3-{[8-(Methylamino)-2-oxo-1,2-dihydroquinoline-3-carbonyl]amino}benzoic Acid], at GyrB (1–220) (Table 3), the “ITC ΔH” value was -12.9 kcal/mol.
As to `CNc1cccc2cc(C(=O)NCCc3cccc(C(=O)O)c3)c(=O)[nH]c12` [Compound 13c, 3-(2-{[8-(Methylamino)-2-oxo-1,2-dihydroquinoline-3-carbonyl]amino}ethyl)benzoic Acid], at GyrB (1–220) (Table 3), the “ITC ΔH” value was -13.2 kcal/mol. In addition, the “MIC E. coli ATCC 25922” value with E. coli ATCC 25922 is “no antibacterial activity”. In addition, in the data set on S. aureus ATCC 29213, the “MIC S. aureus ATCC 29213” value is reported as “no antibacterial activity”.
As for `CNc1cccc2cc(C(=O)Nc3ccc(C(=O)O)cc3)c(=O)[nH]c12` [Compound 13e, 4-{[8-(Methylamino)-2-oxo-1,2-dihydroquinoline-3-carbonyl]amino}benzoic Acid], the “ITC ΔH” value on GyrB (1–220) (Table 3) was -13.7 kcal/mol. In “HepG2 cytotoxicity”, the cytotoxicity at 48 h, 50 µM worked out at 8.4%.
As to `CNc1cccc2cc(C(=O)NCc3ccc(C(=O)O)cc3)c(=O)[nH]c12` [Compound 13f, 4-({[8-(Methylamino)-2-oxo-1,2-dihydroquinoline-3-carbonyl]amino}methyl)benzoic Acid], the “MIC E. coli ATCC 25922” value against E. coli ATCC 25922 is “no antibacterial activity”. Further, the “MIC S. aureus ATCC 29213” value in the data set with S. aureus ATCC 29213 is listed as “no antibacterial activity”.
